Assay results: patent US11964052B2, “Lipid compounds and lipid nanoparticle compositions” (SUZHOU ABOGEN BIOSCIENCES CO., LTD., priority 2021, dated 2024)

How the values were obtained:
Assay type in all cases: physicochemical
[1] = Encapsulation efficiency of lipid nanoparticles, Quant-it Ribogreen RNA quantification assay; details: LNP with mRNA
Procedure: (§1) Briefly, a cationic lipid provided herein, DSPC, cholesterol, and PEG-lipid were solubilized in ethanol at a molar ratio of 50:10:38.5:1.5, and mRNA were diluted in 10 to 50 mM citrate buffer, pH=4. The LNPs were prepared at a total lipid to mRNA weight ratio of approximately 10:1 to 30:1 by mixing the ethanolic lipid solution with the aqueous mRNA solution at a volume ratio of 1:3 using a microfluidic apparatus, total flow rate ranging from 9-30 mL/min. Ethanol were thereby removed and replaced by DPBS using dialysis. Finally, the lipid nanoparticles were filtered through a 0.2 μm sterile filter.
(§2) Lipid nanoparticle size were determined by dynamic light scattering using a Malvern Zetasizer Nano ZS (Malvern UK) using a 173° backscatter detection mode. The encapsulation efficiency of lipid nanoparticles were determined using a Quant-it Ribogreen RNA quantification assay kit (Thermo Fisher Scientific, UK) according to the manufacturer's instructions.

[2] = Lipid nanoparticle size and polydispersity by dynamic light scattering (Malvern Zetasizer Nano ZS); details: LNP of cationic lipid/DSPC/cholesterol/PEG-lipid 50:10:38.5:1.5 with mRNA
Procedure: as §1, §2

[3] = Apparent pKa of LNP formulations, TNS fluorescence assay; details: LNP cationic lipid/DSPC/cholesterol/DMG-PEG 50/10/38.5/1.5 mol %, pH 3 to 9
Procedure: As reported in literature, the apparent pKa of LNP formulations correlates with the delivery efficiency of LNPs for nucleic acids in vivo. The apparent pKa of each formulation was determined using an assay based on fluorescence of 2-(p-toluidino)-6-napthalene sulfonic acid (TNS). LNP formulations comprising of cationic lipid/DSPC/cholesterol/DMG-PEG (50/10/38.5/1.5 mol %) in PBS were prepared as described above. TNS was prepared as a 300 uM stock solution in distilled water. LNP formulations were diluted to 0.1 mg/ml total lipid in 3 mL of buffered solutions containing 50 mM sodium citrate, 50 mM sodium phosphate, 50 mM sodium borate, and 30 mM sodium chloride where the pH ranged from 3 to 9. An aliquot of the TNS solution was added to give a final concentration of 0.1 mg/ml and following vortex mixing fluorescence intensity was measured at room temperature in a Molecular Devices Spectramax iD3 spectrometer using excitation and mission wavelengths of 325 nm and 435 nm. A sigmoidal best fit analysis was applied to the fluorescence data and the pKa value was measured as the pH giving rise to half-maximal fluorescent intensity.

SMILES | Encapsulation Efficiency [1] | polydispersity [2] | size (nm) [2] | Apparant Pka [3]
CCCCCCCCCCCCOCC(CN(CCCCCC(=O)OCC(CCCCCC)CCCCCCCC)CCN(CCO)C1CCC1)OCCCCCCCCCCCC (stereo not shown) [Compound 28] | 86.9% | 0.2 | 54.96 nm | 5.905
CCCCCCCCCCCCOCC(CN(CCCCCC(=O)OCC(CCCCCC)CCCCCCCC)CCN(CCO)C1CCCC1)OCCCCCCCCCCCC (stereo not shown) [Compound 29] | 80.1% | 0.110 | 53.73 nm | 5.699
CCCCCCCCCCCCOCC(CN(CCCCCC(=O)OCC(CCCCCC)CCCCCCCC)CCN(CCO)C1CCCCC1)OCCCCCCCCCCCC (stereo not shown) [Compound 30] | 92.7% | 0.107 | 49.64 nm | 5.409
CCCCCCCCCCCCOCC(CN(CCCCCC(=O)OCC(CCCCCC)CCCCCCCC)CCN(CCO)C1CCCCCC1)OCCCCCCCCCCCC (stereo not shown) [Compound 31] | 80.1% | 0.127 | 51.35 nm | 5.704
CCCCCCCCC(CCCCCC)CC(=O)OCC(CN(CCO)C1CCC1)OC(=O)CC(CCCCCC)CCCCCCCC (stereo not shown) [Compound 32] | 44.6% | 0.232 | 59.1 nm | 3.519
CCCCCCCCCCCCOCC(CN(CCCCCC(=O)OCC(CCCCCC)CCCCCCCC)CCN(CCO)C1CCC1)OCCCCCCCC (stereo not shown) [Compound 33] | 94.30% | 0.06 | 63.54 nm | 5.943
CCCCCCCCCCCCOCC(CN(CCCCCC(=O)OCC(CCCCCC)CCCCCCCC)CCN(CCO)C1CC1)OCCCCCCCC (stereo not shown) [Compound 34] | 89.60% | 0.103 | 58.33 nm | 5.482
CCCCCCCCCCCCOCC(CN(CCCCCC(=O)OCC(CCCCCC)CCCCCCCC)CCN(CCO)C1CCCC1)OCCCCCCCC (stereo not shown) [Compound 35] | 96.80% | 0.1 | 56.71 nm | 5.940
CCCCCCCCCCCCOCC(CN(CCCCCC(=O)OCC(CCCCCC)CCCCCCCC)CCN(CCO)C1CCCCC1)OCCCCCCCC (stereo not shown) [Compound 36] | 94.20% | 0.078 | 59.91 nm | 5.774
CCCCCCCCCCCCOCC(CN(CCCCCC(=O)OCC(CCCCCC)CCCCCCCC)CCN(CCO)C1CCCCCC1)OCCCCCCCC (stereo not shown) [Compound 37] | 92.70% | 0.156 | 51.77 nm | 5.726
CCCCCCCCCCCCOCC(CN(C)CCN(CCO)C1CCC1)OCCCCCC (stereo not shown) [Compound 38] | 76.2% | 0.194 | 97.62 nm | 6.971
CCCCCCCCCCCCOCC(CN(C)CCN(CCO)C1CCC1)OCCCCCCCCCCCC (stereo not shown) [Compound 39] | 94.7% | 0.162 | 111.2 nm | 6.712
CCCCCCCCCCCCOCC(CN(C)CCO)OC(=O)CCCCCCCCCCC (stereo not shown) [Compound 41] | 83.5% | 0.136 | 82.81 nm | 5.746
CCCCCCCCCCCCOCC(CN(C)CCN(CCO)C1CCC1)OC(=O)CCCCCCCCCCC (stereo not shown) [Compound 42] | 94.4% | 0.155 | 82.81 nm | 6.283
CCCCCCCCCOC(=O)CCOCC(CN(C)CCN(CCO)C1CCC1)OCCC(=O)OCCCCCCCCC (stereo not shown) [Compound 43] | 78.4% | 0.362 | 138.6 nm | 7.227
CCCCCCCCCCCCOCC(CN(C)CCN(CCO)C1CCC1)OC(=O)CCCCC (stereo not shown) [Compound 44] | 85.2% | 0.178 | 112.8 nm | 6.65
CCCCCCCCCCCCOCC(CN(C)CCN(CCO)C1CCCCC1)OCCCCCC (stereo not shown) [Compound 45] | 86.8% | 0.289 | 68.33 nm | 7.466
CCCCCCCCCCCCCCCCCCOCC(CN(CCCCCC(=O)OCCCCCCCCCC)CCN(CCO)C1CCC1)OCCCCCC (stereo not shown) [Compound 46] | 95.9% | 0.039 | 103.3 nm | 6.047
CCCCCCCCCCCCCCOC(COCCCCCCCCCCCC)CN(CCCCCC(=O)OCCCCCCCCCC)CCN(CCO)C1CCC1 (stereo not shown) [Compound 47] | 91.3% | 0.082 | 82.89 nm | 6.120
CCCCCCCCCCCCOCC(CN(CCCCCC(=O)OCCCCCCCCCC)CCN(CCO)C1CCC1)OCCCCCCCC (stereo not shown) [Compound 48] | 91.7% | 0.113 | 79.39 nm | 6.263
CCCCCCCCCCCCOCC(CN(CCCCCC(=O)OCCCCCCCCCC)CCN(CCO)C1CCC1)OCCCCCC (stereo not shown) [Compound 49] | 83.7% | 0.031 | 99.66 nm | 6.221
CCCCCCCCC(CCCCCCCC)CNC(=O)CCOCC(CN(C)CCO)OCCC(=O)NCC(CCCCCCCC)CCCCCCCC (stereo not shown) [Compound 50] | 90.4% | 0.099 | 58.14 nm | 8.298
CCCCCCCCC(CCCCCCCC)CNC(=O)CCOCC(CN(C)CCN(CCO)C1CCC1)OCCC(=O)NCC(CCCCCCCC)CCCCCCCC (stereo not shown) [Compound 51] | 94.7% | 0.057 | 75.11 nm | 7.727
CCCCCCCCCCCCCCCCOCC(CN(CCCCCC(=O)OCCCCCCCCCC)CCN(CCO)C1CCC1)OCCCCCC (stereo not shown) [Compound 53] | 89.79% | 0.014 | 90.06 nm | 6.069
CCCCCCCCC(CCCCCCCC)COC(=O)CCOCC(CN(C)CCN(CCO)C1CCC1)OCCC(=O)OCC(CCCCCCCC)CCCCCCCC (stereo not shown) [Compound 55] | 89.5% | 0.034 | 75.43 nm | 6.851
CCCCCCCCC(CCCCCCCC)CC(=O)OCC(CCCCN(CCO)C1CCC1)COC(=O)CC(CCCCCCCC)CCCCCCCC [Compound 56] | 91.0% | 0.107 | 53.32 nm | 6.403
CCCCCCCCC(CCCCCCCC)CNC(=O)CCOCC(CN(C)CCN(CCO)C1CCCC1)OCCC(=O)NCC(CCCCCCCC)CCCCCCCC (stereo not shown) [Compound 57] | 97.0% | 0.055 | 70.05 nm | 7.73
CCCCCCCCC(CCCCCCCC)CC(=O)OCC(CCCCN(CCO)C1CCC1)COC(=O)CCCCC (stereo not shown) [Compound 60] | 92.6% | 0.068 | 73.31 nm | 6.985
